Results published in US6376490B1, “Quinoxalinediones” (Pfizer Inc, priority 1997, dated 2002).
Counter-ions that a name gives are not always drawn.

System: not given
Experiment: not given
Details: not given

Structure (SMILES) | melting point
Cc1nnc(-c2ccccc2)n1-c1c(Cl)c(Cl)cc2[nH]c(=O)c(=O)[nH]c12 (as salt: HCl) (hydrate or solvate) [Example 73] | 274 to 276 °C
O=C(O)Cn1nnnc1-c1c(Cl)c(Cl)cc2[nH]c(=O)c(=O)[nH]c12 (hydrate or solvate) [Example 8, 6,7-dichloro-5-(1-carboxymethyltetrazol-5-yl)-2,3(1H,4H)-quinoxalinedione] | 286 to 287 °C
Cn1ncnc1-c1c(Cl)c(Cl)cc2[nH]c(=O)c(=O)[nH]c12 (hydrate or solvate) [Example 20] | > 300 °C
O=c1[nH]c2cc(Cl)c(Cl)c(-c3ccncc3)c2[nH]c1=O [Example 1, 6,7-Dichloro-5-(4-pyridyl)-2,3(1H,4H)-quinoxalinedione] | > 300 °C
COC(=O)Cn1nnnc1-c1c(Cl)c(Cl)cc2[nH]c(=O)c(=O)[nH]c12 [Example 108, 6,7-Dichloro-5-(1-methoxycarbonylmethyltetrazol-5-yl)-2,3(1H,4H)-quinoxalinedione] | 281 to 283 °C
COCc1nnc(-c2cccnc2)n1-c1c(Cl)c(C)cc2[nH]c(=O)c(=O)[nH]c12 [Example 109, 6-Chloro-7-methyl-5-[5-methoxymethyl-3-(3-pyridyl)-4H-1,2,4-triazol-4-yl]-2,3(1H,4H)-quinoxalinedione] | 229 to 231 °C
COCc1nnc(-c2cccnc2)n1-c1c(C)c(Cl)cc2[nH]c(=O)c(=O)[nH]c12 [Example 110, 7-Chloro-6-methyl-5-[5-methoxymethyl-3-(3-pyridyl)-4H-1,2,4-triazol-4-yl]-2,3(1H,4H)-quinoxalinedione] | > 300 °C

Molecular target: T1, glycine site of the NMDA receptor (Rattus norvegicus, UniProt P35439)
T1 construct: from tissue; host or cells: rat brain membranes
Experiment: Displacement of [3H]-L-689,560 from rat brain membranes (NMDA glycine site binding)
Details: [3H]-L-689,560 method, tris-acetate buffer pH 7.4, 90 minutes, read-out: IC50 (nM), binding affinity for the glycine site of the NMDA receptor
Description: J. Pharm., 104, 74 (1991).
The binding affinities of a selection of the compounds of the Examples for the glycine site of the NMDA receptor were measured using the [^3H]-L-689,560 method described on page 20 of the description.

Structure (SMILES) | IC50
Cn1ncnc1-c1c(Cl)c(Cl)cc2[nH]c(=O)c(=O)[nH]c12 [Example 20] | 19 nM
Cc1nnc(-c2ccccc2)n1-c1c(Cl)c(Cl)cc2[nH]c(=O)c(=O)[nH]c12 [Example 73] | 4 nM
